{"source": "patent US20240103015A1", "about": "“METHODS FOR ASSAYING SLC34A2 EXPRESSION IN MUSCLE TISSUE AND TREATING FACIOSCAPULOHUMERAL MUSCULAR DYSTROPHY” (University of Maryland, Baltimore, priority 2022, published 2024)", "key": {"[1]": {"tested_on": "DUX4 target genes (MBD3L2, LEUTX, SLC34A2)", "assay": "qPCR of DUX4 target gene mRNAs in FSHD xenografts of treated mice", "assay_type": "in vivo, mouse", "procedure": "Xenografts are treated starting at 5 weeks after initial engraftment. Dosage is 10 mg/kg BID, injected IP."}, "[2]": {"tested_on": "SLC34A2 protein in C6 (FSHD) myotubes", "assay": "Immunoblot of SLC34A2 protein in cultured FSHD myotubes treated with p38 kinase inhibitors", "assay_type": "cell-based, human", "conditions": "for expression of the SLC34A2 protein: cultured C6 (FSHD) myotubes", "text": "(i): We have adapted and improved our procedures to assay for SLC34A2 mRNA and protein in myotubes of immortalized myoblasts derived from FSHD and healthy individuals. To establish the validity of our assays, we use losmapimod and other p38 kinase inhibitors."}, "[3]": {"tested_on": "SLC34A2 protein at the surface of FSHD myotubes", "assay": "Surface labeling of SLC34A2 protein on FSHD myotubes with and without losmapimod", "assay_type": "cell-based, human", "text": "FIG. 20. Labeling of SLC34A2 protein at the surface of FSHD myotubes, with and without treatment with losmapimod. […] FIG. 21. Relative intensities of surface labeling of SLC34A2 in FSHD myotubes with and without losmapimod treatment, as in FIG. 20, normalized to the desmin signal in each ROI. *, p<0.05."}, "[4]": {"tested_on": "DUX4, SLC34A2 and other downstream gene products of DUX4", "assay": "Relative mRNA expression of DUX4 and downstream genes in FSHD myotubes with and without losmapimod", "assay_type": "cell-based, human", "text": "FIG. 22. Relative mRNA expression of DUX4, SLC34A2, and other downstream gene products of DUX4, in the presence and absence of losmapimod. *, p<0.05, **, p<0.01."}, "SLC34A2 [5]": {"tested_on": "SLC34A2", "conditions": "cited from earlier work"}, "SLC34A2 [6]": {"biological_target": "T1, SLC34A2 (Homo sapiens, UniProt O95436)", "T1 construct": "from tissue; host or cells: Xenografts of human FSHD myoblasts (C6, 15A; controls A4, 15V) in the tibialis anterior of NRG mice", "T1 sequence (O95436 1-689 isoform O95436-2 D633G)": "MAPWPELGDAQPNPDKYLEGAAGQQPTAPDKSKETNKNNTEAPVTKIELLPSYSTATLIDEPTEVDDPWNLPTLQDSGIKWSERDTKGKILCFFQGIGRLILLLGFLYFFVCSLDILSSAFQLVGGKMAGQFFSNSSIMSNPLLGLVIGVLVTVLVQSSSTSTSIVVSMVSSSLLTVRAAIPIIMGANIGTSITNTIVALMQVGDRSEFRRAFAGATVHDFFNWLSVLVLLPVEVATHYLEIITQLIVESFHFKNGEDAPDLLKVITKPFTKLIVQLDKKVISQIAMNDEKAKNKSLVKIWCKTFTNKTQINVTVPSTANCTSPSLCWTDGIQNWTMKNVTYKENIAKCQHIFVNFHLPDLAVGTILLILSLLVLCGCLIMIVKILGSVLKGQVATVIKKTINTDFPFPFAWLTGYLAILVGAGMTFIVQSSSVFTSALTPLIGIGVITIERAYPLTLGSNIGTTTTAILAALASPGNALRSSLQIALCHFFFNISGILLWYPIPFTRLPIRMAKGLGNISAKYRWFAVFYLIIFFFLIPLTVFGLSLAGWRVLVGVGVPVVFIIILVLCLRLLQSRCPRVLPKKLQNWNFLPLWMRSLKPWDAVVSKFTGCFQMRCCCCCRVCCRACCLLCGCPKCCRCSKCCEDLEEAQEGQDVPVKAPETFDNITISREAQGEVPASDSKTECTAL", "assay": "Immunofluorescent labeling of frozen sections of xenografts with MX35", "assay_type": "binding", "conditions": "control grafts generated with A4 cells", "text": "(§1) Antibodies: MX35 is a mouse mAb from the Sloan-Kettering Research Institute. Biotinylation and conjugation of MX35 or its Fab fragments, to Alexa fluorophores from InVitrogen/ThermoFisher, will follow manufacturer's instructions. Rabbit mAbs to the N- and C-terminal regions of SLC34A2 (Cell Signaling) are used at 1:100 dilutions. Fluorescent secondary antibodies and streptavidin are available commercially.\n(§2) Immunofluorescence: Mice will be euthanized and blood samples taken. Muscles will be collected and either snap frozen or processed for PCR or immunoblotting. Frozen muscles will be-sectioned on a cryostat and labeled for biotinylated MX35 with fluorescent streptavidin or antibodies to biotin. Double labeling with rabbit anti-SLC34A2 antibodies will be performed to confirm the identity of positive fibers. Additional labeling with human-specific antibodies (e.g., to β-spectrin, lamin followed by isoform-specific secondary antibodies will be used to confirm the identify of fibers of human origin in the xenografts, as: necessary.\n(§3) Results: We used immortalized C6 myoblasts (14) to generate xenografts in the Tibialis anterior muscles of NRG mice. Cross sections of the graft show similar immunofluorescent labeling by MX35 and a rabbit Ab to the C-terminus of SLC34A2 (FIG. 6). […]"}, "SLC34A2 [7]": {"biological_target": "T2, SLC34A2 (Homo sapiens, UniProt O95436, D634G)", "T2 construct": "from tissue; host or cells: Xenografts of human FSHD myoblasts (C6, 15A; controls A4, 15V) in the tibialis anterior of NRG mice", "T2 sequence (O95436 1-689 isoform O95436-2 D633G)": "T1 sequence (O95436 1-689 isoform O95436-2 D633G)", "assay": "Immunofluorescent labeling of frozen sections of xenografts with MX35", "assay_type": "binding", "conditions": "FSHD (C6) xenografts in Tibialis anterior of NRG mice", "text": "as §1, §2, §3"}, "SLC34A2 [8]": {"biological_target": "T2, SLC34A2", "assay": "Immunoprecipitation of SLC34A2 from extracts of FSHD muscle cells in culture", "assay_type": "binding", "text": "FIG. 13. Immunoblots of FSHD and control myotubes with antibodies to the C- and N-termini of SLC34A2 (A) and after immunoprecipitation with MX35 (B), followed by blotting."}, "SLC34A2 [9]": {"biological_target": "T2, SLC34A2", "assay": "Immunolabeling of living FSHD (C6) and control (A4) myotubes", "assay_type": "binding", "conditions": "FSHD (C6) vs control (A4) myotubes", "text": "FIG. 14. Immunolabeling of living FSHD (C6) and control (A4) myotubes with MX35 and control IgG. DAPI was used as a counterstain (blue). Bound MX35 and control IgG were recognized with Alexa-568 labeled goat anti-mouse IgG (red)."}, "[10]": {"biological_target": "T3, SLC34A2 in FSHD xenografts (Homo sapiens, UniProt O95436)", "T3 construct": "from tissue; host or cells: Xenografts of human FSHD myoblasts (C6, 15A; controls A4, 15V) in the tibialis anterior of NRG mice", "T3 sequence (O95436 1-689 isoform O95436-2 D633G)": "T1 sequence (O95436 1-689 isoform O95436-2 D633G)", "assay": "IVIS imaging of living mice carrying xenografts after injection of fluorescent antibody", "assay_type": "in vivo, mouse", "conditions": "living mice (IVIS) and frozen sections", "text": "(ii): Given the level of variability we observe in our xenografts, and the small numbers of FSHD myofibers in the grafts generated by some of the FSHD cell lines we have been studying, we thought it important to be able to monitor the diseased myofibers in living mice. Our approach is to inject mice with an infrared fluorescent version of a monoclonal antibody to SLC34A2, MX-35, that recognizes an extracellular epitope of the protein and that has been used clinically with patients with ovarian cancer. This approach should allow us to estimate the lifetime of the fibers once they become positive for SLC34A2, and, using different IR fluorophores, what the rate of appearance of newly positive fibers is in our grafts. It could also be used to test potential treatments for FSHD both in mice and in clinical trials with FSHD patients.\nInjection and Imaging: Mice will be injected IV with fluorescent mAb or Fab fragments either through the tail vein or retroorbitally, with 150 μg of the biotinylated antibodyfluorophore conjugate in […]. Imaging in a Xenogen IVIS Spectrum Optical In Vivo imaging System (Perkin Elmer), will begin 2 hr later, repeated daily for 3 days, and at longer intervals thereafter. Repeated injections will also be done at regular intervals, to be determined, based on the levels of the antibody-conjugate remaining in circulation."}, "SLC34A2 [11]": {"tested_on": "SLC34A2", "conditions": "epithelia and cancers; cited from earlier work"}, "[12]": {"conditions": "10 mg/kg BID IP from 5 weeks after engraftment"}}, "data": [{"compound": "CC(C)(C)Cn1c(N)nc2ccc(-c3[nH]c(C(C)(C)C)nc3-c3ccc(F)cc3)nc21", "note": "[LY222820, ralimetinib]", "values": [{"measurement": "expression of the mRNAs encoding DUX4 target genes, including SLC34A2", "setting": "[1]", "result": "reduces expression"}, {"measurement": "LEUTX reduction in expression", "setting": "[1]; [12]", "result": "60-70%"}, {"measurement": "MBD3L2 reduction in expression", "setting": "[1]; [12]", "result": "60-70%"}, {"measurement": "SLC34A2 reduction in expression", "setting": "[1]; [12]", "result": 41, "unit": "%"}, {"measurement": "expression of the SLC34A2 protein", "setting": "[2]", "result": "Decreased expression"}]}, {"compound": "Cc1c(F)cc(C(=O)NC2CC2)cc1-c1ccc(C(=O)NCC(C)(C)C)cn1", "note": "[losmapimod]", "values": [{"measurement": "expression of the SLC34A2 protein", "setting": "[2]", "result": "Decreased expression"}, {"measurement": "SLC34A2 protein level", "setting": "[2]; cultured FSHD myotubes, immunoblots", "result": "−2", "unit": "fold"}, {"measurement": "surface labeling signal of SLC34A2 protein", "setting": "[3]", "result": "reduces this signal significantly"}, {"measurement": "mRNAs encoding DUX4, SLC34A2 and other gene products downstream of DUX4", "setting": "[4]", "result": "reduces the mRNAs encoding DUX4 and SLC34A2"}, {"measurement": "expression of SLC34A2", "setting": "SLC34A2 [5]", "result": "reduces the expression of SLC34A2"}]}, {"compound": "MX35", "values": [{"measurement": "labeling of control graft sections", "setting": "SLC34A2 [6]", "result": "no labeling"}, {"measurement": "recognition of SLC34A2 in xenograft sections", "setting": "SLC34A2 [7]", "result": "recognizes SLC34A2 in mature FSHD skeletal muscle"}, {"measurement": "immunoprecipitation of SLC34A2", "setting": "SLC34A2 [8]", "result": "can immunoprecipitated SLC34A2"}, {"measurement": "labeling of the surface of living myotubes", "setting": "SLC34A2 [9]", "result": "specifically labels the surface of intact living FSHD myotubes, but not control, healthy myotubes"}, {"measurement": "detection of antibody-tagged fibers in grafts", "setting": "[10]", "result": "can be detected in FSHD but not control grafts"}, {"measurement": "binding to SLC34A2", "setting": "SLC34A2 [11]", "result": "bind SLC34A2 present in epithelia and cancers"}]}]}
